The format of series [1] is physicochemical.
Series [2] relates to MCF-7 human breast cancer cells. In words: in vitro cytotoxicity, resazurin dye, 72 h. The format is cell-based. The note with it: MCF7, 72 h, read-out: MCF-7 IC50. Background: Alamar Blue is a resazurin reagent that responds to reducing activity.
Series [3] deals with PC-3 human prostate cells. As to the kind of experiment: in vitro cytotoxicity, resazurin dye, 72 h. The note with it: Prostate cell, read-out: PC-3 IC50. It counts as cell-based.
For series [4] the following is noted: cited from earlier work.
A further series concerns MCF-7. The note with it: read-out: IC50 for MCF-7; reported by the National Cancer Institute; cited from earlier work.
Another series has as its system dogs. The note with it: in dogs; cited from earlier work.
The next series concerns PC-3. To be noted: read-out: IC50 for PC-3; reported by the National Cancer Institute; cited from earlier work.
The format of series [5] is physicochemical. The note with it: 0.3 mM PEO-b-PDLLA, 10% w/w drug, dialysis in ddH2O, 37 °C, pH 7.4.

By IC50 is commonly meant the concentration needed to halve the response being measured. Take `C=CCNC1=C2C[C@@H](C)C[C@H](OC)[C@H](O)[C@@H](C)/C=C(\C)[C@H](OC(N)=O)[C@@H](OC)/C=C\C=C(/C)C(=O)NC(=CC1=O)C2=O` [17-AAG, 17-allylamino-17-demethoxygeldanamycin]: the “17-AAG : PEO-b-PDLLA” value in series [1] (0.3 mM PEO-b-PDLLA micelle solution) is listed as 0.47 ± 0.068 mol:mol. In series [1] (17-AAG loaded 1.4% divided by loading attempted 10% w/w), this compound returned a Loading efficiency of 14 ± 2.0%. Moreover, the “increase in solubility over 17-AAG alone” value in series [1] (in PEO-b-PDLLA (12:6 kDa) micelles versus ca. 10 μg/mL) is on record as “ca. 150 fold”. This compound also yielded a 17-AAG loaded in series [1] (weight 17-AAG solubilized versus total weight of carrier (17-AAG and PEO-b-PDLLA), 0.3 mM PEO-b-PDLLA) of 0.014 ± 0.0020 mg/mg. Moreover, the IC50 in series [2] is 22 ± 14 nM; in series [3] it was 74 ± 14 nM; in the series on MCF-7, 12.6 nM; with PC-3, 50.1 nM. For the same compound, the aqueous solubility result in series [4] is recorded as “ca. 0.01 mg/mL”. The maximum tolerated dose in the series on dogs is 100–200 mg/m^2/day. In series [5], the release half-life result was “similar”.
In the case of `CO[C@H]1/C=C\C=C(/C)C(=O)NC2=CC(=O)C(NCCN(C)C)=C(C[C@@H](C)C[C@H](OC)[C@H](O)[C@@H](C)/C=C(\C)[C@@H]1OC(N)=O)C2=O` [17-DMAG, 17-dimethylaminoethylamino-17-demethoxygeldanamycin], in the series on dogs, the maximum tolerated dose is 8 mg/m^2/day.

(Values after paper PMC2649998 (Journal of pharmaceutical sciences, 2009).)
